Each structure is given as a SMILES string. pIC50: −log10 of the molar value. Where “and” joins values, the source holds several entries; their conditions need not be identical. Equal entries are not always repeated.

IC50 data for 38 molecules are collected here from patent publication US8846928B2 (Portola Pharmaceuticals, Inc., priority 2010, dated 2014).

The target in the experiment is T1, full length active recombinant SYK enzyme (Homo sapiens, UniProt P43405).
T1 construct: full length active recombinant SYK enzyme (Millipore, Calif.); purchased Millipore
Put plainly: Inhibition of Syk tyrosine phosphorylation activity (LANCE TR-FRET kinase assay). It is filed as biochemical.
Consider `CC[C@@H](Nc1nc(Nc2cccc3c2ccn3C)c(C(N)=O)cc1F)C(N)=O` [Example 243, (R)-6-(1-amino-1-oxobutan-2-ylamino)-5-fluoro-2-(1-methyl-1H-indol-4-ylamino)nicotinamide], for which the pIC50 is 7.00 to 8.00.

For the molecule `CC[C@@H](Nc1nc(Nc2ccc3c(ccn3C)c2)c(C(N)=O)cc1F)C(N)=O` [Example 244, (R)-6-(1-amino-1-oxobutan-2-ylamino)-5-fluoro-2-(1-methyl-1H-indol-5-ylamino)nicotinamide], the pIC50 is 6.00 to 7.00.

Consider `CC[C@@H](Nc1nc(Nc2cccc3ncccc23)c(C(N)=O)cc1F)C(N)=O` [Example 245, (R)-6-(1-amino-1-oxobutan-2-ylamino)-5-fluoro-2-(quinolin-5-ylamino)nicotinamide], for which the pIC50 was 7.00 to 8.00.

For `CC(C)C[C@@H](Nc1nc(Nc2ccc3cccnc3c2)c(C(N)=O)cc1F)C(N)=O` [Example 246, (R)-6-(1-amino-4-methyl-1-oxopentan-2-ylamino)-5-fluoro-2-(quinolin-7-ylamino)nicotinamide], the pIC50 was 7.00 to 8.00.

As to `CC(C)C[C@@H](Nc1nc(Nc2cnc3ccccc3c2)c(C(N)=O)cc1F)C(N)=O` [Example 247, (R)-6-(1-amino-4-methyl-1-oxopentan-2-ylamino)-5-fluoro-2-(quinolin-3-ylamino)nicotinamide], the pIC50 is 7.00 to 8.00.

As to `CC(C)C[C@@H](Nc1nc(Nc2ccc3ncccc3c2)c(C(N)=O)cc1F)C(N)=O` [Example 248, (R)-6-(1-amino-4-methyl-1-oxopentan-2-ylamino)-5-fluoro-2-(quinolin-6-ylamino)nicotinamide], the pIC50 is 8.00 to 9.00.

`CC(C)C[C@@H](Nc1nc(Nc2ccc3c(ccn3C)c2)c(C(N)=O)cc1F)C(N)=O` [Example 249, (R)-6-(1-amino-4-methyl-1-oxopentan-2-ylamino)-5-fluoro-2-(1-methyl-1H-indol-5-ylamino)nicotinamide]: the pIC50 is 7.00 to 8.00.

For `NC(=O)c1cc(F)c(N[C@H](CC2CC2)C(N)=O)nc1Nc1ccc2cccnc2c1` [Example 250, (R)-6-(1-amino-3-cyclopropyl-1-oxopropan-2-ylamino)-5-fluoro-2-(quinolin-7-ylamino)nicotinamide], the pIC50 is 7.00 to 8.00.

Regarding `NC(=O)c1cc(F)c(N[C@H](CC2CC2)C(N)=O)nc1Nc1cnc2ccccc2c1` [Example 251, (R)-6-(1-amino-3-cyclopropyl-1-oxopropan-2-ylamino)-5-fluoro-2-(quinolin-3-ylamino)nicotinamide], the pIC50 was 8.00 to 9.00.

Turning to `NC(=O)c1cc(F)c(N[C@H](CC2CC2)C(N)=O)nc1Nc1ccc2ncccc2c1` [Example 252, (R)-6-(1-amino-3-cyclopropyl-1-oxopropan-2-ylamino)-5-fluoro-2-(quinolin-6-ylamino)nicotinamide], the negative logarithm of the IC50 (pIC50) was 8.00 to 9.00.

Consider `Cc1cc(Nc2nc(N[C@H](CC3CC3)C(N)=O)c(F)cc2C(N)=O)sn1` [Example 253, (R)-6-(1-amino-3-cyclopropyl-1-oxopropan-2-ylamino)-5-fluoro-2-(3-methylisothiazol-5-ylamino)nicotinamide], for which the pIC50 was 7.00 to 8.00.

`NC(=O)c1ccc(N[C@@H]2CCCC[C@@H]2N)nc1Nc1ccc2c(c1)OCCO2` [Example 254, 6-((1R,2S)-2-aminocyclohexylamino)-2-(2,3-dihydrobenzo[b][1,4]dioxin-6-ylamino)nicotinamide]: the pIC50 is 8.00 to 9.00.

Regarding `NC(=O)c1ccc(N[C@@H]2CCCC[C@@H]2N)nc1Nc1ccc2c(c1)OCO2` [Example 255], the pIC50 was 8.00 to 9.00 and 7.00 to 8.00.

As for `Cc1cncc(Nc2nc(N[C@@H]3CCCC[C@@H]3N)ccc2C(N)=O)c1` [Example 256], the pIC50 is 8.00 to 9.00.

In the case of `C[C@H](N)CNc1nc(Nc2cccc(-n3nccn3)c2)c(C(N)=O)cc1F` [Example 257, (S)-2-(3-(2H-1,2,3-triazol-2-yl)phenylamino)-6-(2-aminopropylamino)-5-fluoronicotinamide], the pIC50 was 8.00 to 9.00.

For `C[C@H](N)CNc1nc(Nc2cccc(-c3ncccn3)c2)c(C(N)=O)cc1F` [Example 258, (S)-2-(3-(pyrimidin-2-yl)phenylamino)-6-(2-aminopropylamino)-5-fluoronicotinamide], the pIC50 is 7.00 to 8.00.

As for `C[C@H](N)CNc1nc(Nc2cccc(-n3cccn3)c2)c(C(N)=O)cc1F` [Example 259, (S)-2-(3-(1H-pyrazol-1-yl)phenylamino)-6-(2-aminopropylamino)-5-fluoronicotinamide], the pIC50 is 8.00 to 9.00.

Take `Cc1cncc(Nc2nc(NC[C@H](C)N)c(F)cc2C(N)=O)c1` [Example 260, (S)-2-(5-methylpyridin-3-ylamino)-6-(2-aminopropylamino)-5-fluoronicotinamide]: the pIC50 is 7.00 to 8.00.

`C[C@H](N)CNc1nc(Nc2cncc(F)c2)c(C(N)=O)cc1F` [Example 261, (S)-2-(5-fluoropyridin-3-ylamino)-6-(2-aminopropylamino)-5-fluoronicotinamide]: the pIC50 was 6.00 to 7.00.

Consider `CC[C@@H](Nc1nc(Nc2cccc(OC(F)(F)F)c2)c(C(N)=O)cc1F)C(N)=O` [Example 263, (R)-6-(1-amino-1-oxobutan-2-ylamino)-5-fluoro-2-(3-(trifluoromethoxy)phenylamino)nicotinamide], for which the pIC50 was 6.00 to 7.00.

Consider `CC[C@@H](Nc1nc(Nc2cccc(OC(F)F)c2)c(C(N)=O)cc1F)C(N)=O` [Example 264, (R)-6-(1-amino-1-oxobutan-2-ylamino)-5-fluoro-2-(3-(difluoromethoxy)phenylamino)nicotinamide], for which the pIC50 is 6.00 to 7.00.

Regarding `CC(C)C[C@@H](Nc1nc(Nc2cccc(Cl)c2)c(C(N)=O)cc1F)C(N)=O` [Example 265, (R)-6-(1-amino-4-methyl-1-oxopentan-2-ylamino)-5-fluoro-2-(3-chlorophenylamino)nicotinamide], the pIC50 is 7.00 to 8.00.

Turning to `CC(C)C[C@@H](Nc1nc(Nc2ccc(F)c(Cl)c2)c(C(N)=O)cc1F)C(N)=O` [Example 266, (R)-6-(1-amino-4-methyl-1-oxopentan-2-ylamino)-5-fluoro-2-(3-chloro-4-fluorophenylamino)nicotinamide], the negative logarithm of the IC50 (pIC50) was 7.00 to 8.00.

Turning to `NC(=O)c1cc(F)c(N[C@@H]2CCOC[C@@H]2N)nc1Nc1cnc2ccccc2c1` [Example 275, 6-((3R,4R)-3-aminotetrahydro-2H-pyran-4-ylamino)-5-fluoro-2-(quinolin-3-ylamino)nicotinamide], the pIC50 is 7.00 to 8.00.

On to `NC(=O)c1ccc(N[C@@H]2CCOC[C@@H]2N)nc1Nc1ccc2ncccc2c1` [Example 276, 6-((3R,4R)-3-aminotetrahydro-2H-pyran-4-ylamino)-2-(quinolin-6-ylamino)nicotinamide], for which the pIC50 is 8.00 to 9.00.

For the molecule `NC(=O)c1cc(F)c(N[C@@H]2CCOC[C@@H]2N)nc1Nc1cccc(-n2nccn2)c1` [Example 279, 2-(3-(2H-1,2,3-triazol-2-yl)phenylamino)-6-((3R,4R)-3-aminotetrahydro-2H-pyran-4-ylamino)-5-fluoronicotinamide], the pIC50 was 8.00 to 9.00.

As to `NC(=O)c1cc(F)c(N[C@@H]2CCCC(F)(F)[C@@H]2N)nc1Nc1cnc2ccccc2c1` [Example 289, 6-((1R,2R)-2-amino-3,3-difluorocyclohexylamino)-5-fluoro-2-(quinolin-3-ylamino)nicotinamide], the pIC50 is 6.00 to 7.00.

Turning to `NC(=O)c1cc(F)c(N[C@@H]2CCCC(F)(F)[C@@H]2N)nc1Nc1ccc2ncccc2c1` [Example 291, 6-((1R,2R)-2-amino-3,3-difluorocyclohexylamino)-5-fluoro-2-(quinolin-6-ylamino)nicotinamide], the pIC50 is 7.00 to 8.00.

Take `NC(=O)c1cc(F)c(N[C@@H]2CCCC(F)(F)[C@@H]2N)nc1Nc1cccc(-n2nccn2)c1` [Example 293]: the pIC50 was 6.00 to 7.00.

On to `CC(C)[C@@H](Nc1nc(Nc2cnc3ccccc3c2)c(C(N)=O)cc1F)C(N)=O` [Example 300, (R)-6-(1-amino-3-methyl-1-oxobutan-2-ylamino)-5-fluoro-2-(quinolin-3-ylamino)nicotinamide], for which the pIC50 was 7.00 to 8.00.

Take `NC(=O)c1cc(F)c(N[C@H](CC(F)(F)F)C(N)=O)nc1Nc1cnc2ccccc2c1` [Example 301, (R)-6-(1-amino-4,4,4-trifluoro-1-oxobutan-2-ylamino)-5-fluoro-2-(quinolin-3-ylamino)nicotinamide]: the pIC50 is 7.00 to 8.00.

`C[C@@H](Nc1nc(Nc2ccc3ncccc3c2)c(C(N)=O)cc1F)C(N)=O` [Example 302, (R)-6-(1-amino-1-oxopropan-2-ylamino)-5-fluoro-2-(quinolin-6-ylamino)nicotinamide]: the pIC50 is 7.00 to 8.00.

On to `CC[C@@H](Nc1nc(Nc2ccc(C3CC[N+](C)([O-])CC3)cc2)c(C(N)=O)cc1F)C(N)=O` (stereo partly drawn) [Example 308, (R)-4-(4-(6-(1-amino-1-oxobutan-2-ylamino)-3-carbamoyl-5-fluoropyridin-2-ylamino)phenyl)-1-methylpiperidine 1-oxide], for which the pIC50 is 6.00 to 7.00.

Regarding `CN1CCC(c2ccc(Nc3nc(N[C@@H]4CCCC[C@@H]4N)c(F)cc3C(N)=O)cc2)CC1` [Example 309, 6-((1R,2S)-2-aminocyclohexylamino)-5-fluoro-2-(4-(1-methylpiperidin-4-yl)phenylamino)nicotinamide], the pIC50 is 7.00 to 8.00.

Take `NC(=O)c1cc(F)c(N[C@@H]2CCCC[C@@H]2N)nc1Nc1ccc2scnc2c1` [Example 310]: the pIC50 was 8.00 to 9.00.

Consider `NC(=O)c1cc(F)c(N[C@@H]2CCCC[C@@H]2N)nc1Nc1ccccc1` [Example 312, 6-((1R,2S)-2-aminocyclohexylamino)-5-fluoro-2-(phenylamino)nicotinamide], for which the pIC50 was 8.00 to 9.00.

Regarding `Cc1ccccc1Nc1nc(N[C@@H]2CCCC[C@@H]2N)c(F)cc1C(N)=O` [Example 313, 6-((1R,2S)-2-aminocyclohexylamino)-5-fluoro-2-(o-tolylamino)nicotinamide], the pIC50 was 7.00 to 8.00.

On to `Cc1cccc(Nc2nc(N[C@@H]3CCCC[C@@H]3N)c(F)cc2C(N)=O)c1` [Example 314, 6-((1R,2S)-2-aminocyclohexylamino)-5-fluoro-2-(m-tolylamino)nicotinamide], for which the negative-log IC50 (pIC50) was 8.00 to 9.00.
